Each structure is given as a SMILES string.

The test has as its target T1, TNKS2 (Homo sapiens, UniProt Q9H2K2).
T1 sequence (Q9H2K2 1-1166): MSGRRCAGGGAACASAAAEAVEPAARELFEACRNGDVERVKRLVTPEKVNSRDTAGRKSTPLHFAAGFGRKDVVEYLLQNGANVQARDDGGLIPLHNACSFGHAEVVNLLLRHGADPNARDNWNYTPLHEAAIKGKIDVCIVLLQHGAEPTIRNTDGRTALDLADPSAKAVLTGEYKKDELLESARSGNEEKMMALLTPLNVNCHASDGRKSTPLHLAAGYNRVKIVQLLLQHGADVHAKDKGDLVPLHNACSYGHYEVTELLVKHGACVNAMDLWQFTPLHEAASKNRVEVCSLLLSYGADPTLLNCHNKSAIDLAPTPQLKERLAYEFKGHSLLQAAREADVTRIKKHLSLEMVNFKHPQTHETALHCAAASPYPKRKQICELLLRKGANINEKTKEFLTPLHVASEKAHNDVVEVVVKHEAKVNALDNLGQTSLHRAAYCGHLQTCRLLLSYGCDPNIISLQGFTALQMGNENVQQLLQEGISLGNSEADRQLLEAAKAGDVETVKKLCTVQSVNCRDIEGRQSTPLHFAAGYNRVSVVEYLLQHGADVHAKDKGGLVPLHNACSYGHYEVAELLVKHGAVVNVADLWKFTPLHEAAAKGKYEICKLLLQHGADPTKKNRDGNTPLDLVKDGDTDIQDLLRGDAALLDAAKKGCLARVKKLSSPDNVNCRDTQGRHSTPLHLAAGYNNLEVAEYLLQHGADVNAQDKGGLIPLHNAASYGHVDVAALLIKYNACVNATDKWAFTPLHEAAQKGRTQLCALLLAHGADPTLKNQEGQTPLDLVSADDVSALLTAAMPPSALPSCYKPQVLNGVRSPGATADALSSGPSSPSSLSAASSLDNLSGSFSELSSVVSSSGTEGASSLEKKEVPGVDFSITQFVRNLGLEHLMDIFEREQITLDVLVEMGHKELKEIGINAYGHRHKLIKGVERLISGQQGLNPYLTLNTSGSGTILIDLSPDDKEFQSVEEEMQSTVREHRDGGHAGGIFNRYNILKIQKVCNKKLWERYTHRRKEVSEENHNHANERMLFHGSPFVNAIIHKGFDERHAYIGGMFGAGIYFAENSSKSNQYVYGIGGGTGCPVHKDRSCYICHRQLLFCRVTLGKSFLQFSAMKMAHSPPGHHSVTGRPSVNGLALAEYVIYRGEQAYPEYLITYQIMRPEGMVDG
The experiment in a line: Modified TNKS2 Assay 2 (auto-parsylation, [3H]-NAD+ SPA). It is filed as biochemical. The settings on record: 6 nM TNKS2, 96 well. On the procedure: The potency of selected compounds according to the invention was assessed applying an modified in vitro inhibition assay. Here, the TNKS2 catalyzed NAD^+-dependent ribosylation of the enzyme itself (auto-parsylation) was detected using [^3H]-NAD^+ as substrate and applying the scintillation proximity assay (SPA) method to detect tritium-labeled, parsylated TNKS2. The intensity of the readout signal is proportional to the incorporated [^3H]-NAD^+. Inhibition of TNKS2 leads to a decreased incorporation of [^3H]-NAD^+ and consequently to a lower readout signal intensity. The concentration of a test compound which inhibits the enzyme activity by 50% (corresponds to half of the normed readout signal intensity) is reported as IC50.
The assay was conducted in a 96 well MTP format with the identical TNKS2 enzyme sample and NAD^+ sample as in the histone ribosylation assay with the following modifications: TNKS2 enzyme sample was diluted with a modified assay buffer (50 mM MES pH 7.0, 1 mM DTT, 0.01% Triton X-100) to a final concentration of 6 nM TNKS2 and 10×NAD^+ solution was diluted with the modified assay buffer (s. above) to a final 0.445×NAD^+ solution doped with 100 Bq/ul [^3H]-NAD^+ [Catalog #NET443H050UC, Perkin Elmer, Waltham, Mass., USA]. Substrate solution (10 ul) was incubated with different test compound concentrations (2.5 ul in 10% DMSO in modified assay buffer) or control (2.5 ul 10% DMSO in modified assay buffer only) and enzyme (10 ul) over night at room temperature. Incorporated tritium was measured after addition of 50 ul SPA beads (1 mg/ml) [Catalog #RPNQ0095 20 mg/ml, Perkin Elmer, Waltham, Mass., USA; diluted 1:10 with Dulbecco's phosphate buffered saline, PBS Catalog #D8537, Sigma-Aldrich, Steinheim, Germany] and detection of the photon emission with a beta count plate reader [Wallac MicroBeta®, Perkin Elmer, Waltham, Mass., USA].
Take `CC(C)(CN1CCCCC1)NC(=O)c1[nH]cnc1C(=O)Nc1ccc(NC(=O)c2ccc(F)cc2Cl)cc1` [Example 184, N^4-{4-[(2-chloro-4-fluorobenzoyl)amino]phenyl}-N^5-[2-methyl-1-(piperidin-1-yl)propan-2-yl]-1H-imidazole-4,5-dicarboxamide]: the IC50 – broadly, the concentration at which inhibition is half-maximal – was determined as 50 nM.

With `CN1CCN(C(C)(C)CNC(=O)c2[nH]cnc2C(=O)Nc2ccc(NC(=O)c3ccc(F)cc3Cl)cc2)CC1` [Example 187, N^4-{4-[(2-chloro-4-fluorobenzoyl)amino]phenyl}-N^5-[2-methyl-2-(4-methylpiperazin-1-yl)propyl]-1H-imidazole-4,5-dicarboxamide], it took 100 nM to reach half-maximal inhibition (IC50).

On to `O=C(Nc1ccc(NC(=O)c2nc[nH]c2C(=O)NCCCCN2CCCCC2)cc1)c1ccccc1Cl` [Example 189, N^4-{4-[(2-chlorobenzoyl)amino]phenyl}-N^5-[4-(piperidin-1-yl)butyl]-1H-imidazole-4,5-dicarboxamide], for which the IC50 was found to be 260 nM.

For the molecule `O=C(Nc1ccc(NC(=O)c2nc[nH]c2C(=O)NCCN2CCC2)cc1)c1ccc(F)cc1` [Example 199, N^5-[2-(azetidin-1-yl)ethyl]-N^4-{4-[(4-fluorobenzoyl)amino]phenyl}-1H-imidazole-4,5-dicarboxamide], the IC50 was 130 nM.

Take `O=C(Nc1ccc(NC(=O)c2nc[nH]c2C(=O)NCCCN2CCOCC2)cc1)c1ccccc1Cl` [Example 200, N^4-{4-[(2-chlorobenzoyl)amino]phenyl}-N^5-[3-(morpholin-4-yl)propyl]-1H-imidazole-4,5-dicarboxamide]: the IC50 was 580 nM.

With `O=C(Nc1ccc(NC(=O)c2nc[nH]c2C(=O)NCCCN2CCOCC2)cc1)c1ccc(F)cc1` [Example 206, N^4-{4-[(4-fluorobenzoyl)amino]phenyl}-N^5-[3-(morpholin-4-yl)propyl]-1H-imidazole-4,5-dicarboxamide], the IC50 is 5300 nM.

With `CC(C)(CN1CCOCC1)NC(=O)c1[nH]cnc1C(=O)Nc1ccc(NC(=O)c2ccc(F)cc2Cl)cc1` [Example 207, N^4-{4-[(2-chloro-4-fluorobenzoyl)amino]phenyl}-N^5-[2-methyl-1-(morpholin-4-yl)propan-2-yl]-1H-imidazole-4,5-dicarboxamide], the IC50 was 210 nM.

As for `CC1CCCN(CCNC(=O)c2[nH]cnc2C(=O)Nc2ccc(NC(=O)c3ccc(F)cc3Cl)cc2)C1` (stereo not drawn) [Example 208, N^4-{4-[(2-chloro-4-fluorobenzoyl)amino]phenyl}-N^5-[2-(3-methylpiperidin-1-yl)ethyl]-1H-imidazole-4,5-dicarboxamide], the IC50 was 2 nM.

Turning to `CC(C)(CNC(=O)c1[nH]cnc1C(=O)Nc1ccc(NC(=O)c2ccc(F)cc2)cc1)N1CCCCC1` [Example 209, N^4-{4-[(4-fluorobenzoyl)amino]phenyl}-N^5-[2-methyl-2-(piperidin-1-yl)propyl]-1H-imidazole-4,5-dicarboxamide], it took 460 nM to reach half-maximal inhibition (IC50).

`O=C(Nc1ccc(NC(=O)c2nc[nH]c2C(=O)NCCN2CCCCC2)cc1)c1ccc(F)cc1Br` [Example 216, N^4-{4-[(2-bromo-4-fluorobenzoyl)amino]phenyl}-N^5-[2-(piperidin-1-yl)ethyl]-1H-imidazole-4,5-dicarboxamide] showed an IC50 of 2 nM.

`CN(C)CCNC(=O)c1[nH]cnc1C(=O)Nc1ccc(NC(=O)c2ccc(F)cc2Br)cc1` [Example 217, N^4-{4-[(2-bromo-4-fluorobenzoyl)amino]phenyl}-N^5-[2-(dimethylamino)ethyl]-1H-imidazole-4,5-dicarboxamide] returned an IC50 of 8 nM.

In the case of `O=C(Nc1ccc(NC(=O)c2ocnc2C(=O)NCCN2CCC(F)(F)CC2)cc1)c1ccc(F)cc1Cl` [Example 218, N^5-{4-[(2-chloro-4-fluorobenzoyl)amino]phenyl}-N^4-[2-(4,4-difluoropiperidin-1-yl)ethyl]-1,3-oxazole-4,5-dicarboxamide], the 50% inhibitory concentration (IC50) was found to be 110 nM.

Values taken from patent US9884063B2, “Amido-substituted azole compounds” (Bayer Pharma Aktiengesellschaft, priority 2014, dated 2018).
